Assay results from ChEMBL document CHEMBL1125424 (J Med Chem, 1992).

How the values were obtained:
[1] = species: Cavia porcellus; experiment: pA2 was evaluated from schild analyses of the guinea pig ileum contractility data; type: functional; conditions: read-out: pA2 (converted)
[2] = tested on: Rattus norvegicus; experiment: In vivo SP antagonist activity in rats using SP-induced salivation and paw edema assays; type: functional
[3] = molecular target: Substance-P receptor (Rattus norvegicus, UniProt P14600); experiment: Inhibition of Tachykinin receptor 1 of rat forebrain tissue
Sequence of Substance-P receptor (P14600 whole entry): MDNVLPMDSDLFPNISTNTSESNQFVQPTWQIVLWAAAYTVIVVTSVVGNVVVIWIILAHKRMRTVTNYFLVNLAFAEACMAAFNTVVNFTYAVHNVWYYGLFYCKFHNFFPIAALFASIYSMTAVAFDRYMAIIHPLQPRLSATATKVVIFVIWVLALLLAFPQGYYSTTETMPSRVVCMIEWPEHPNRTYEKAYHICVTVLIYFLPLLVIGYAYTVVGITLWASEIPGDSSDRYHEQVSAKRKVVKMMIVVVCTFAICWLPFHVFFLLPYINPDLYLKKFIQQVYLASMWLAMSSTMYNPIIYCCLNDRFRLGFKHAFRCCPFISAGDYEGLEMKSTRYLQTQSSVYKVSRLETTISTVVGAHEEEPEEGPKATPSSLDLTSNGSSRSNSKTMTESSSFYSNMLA

[4] = tested on: Rattus norvegicus; experiment: cIn vivo SP antagonist activity in rats using SP-induced salivation and paw edema assays; type: functional

IC50 [3] [nM]	Structure (SMILES)	further results
390	CCn1c(/C=C/C=C2\N(C)c3ccccc3C2(C)C)[n+](CC)c2cc3ccccc3cc21.[Cl-]	Kb [1]: 35.5 nM; ED50 [2]: 0.48 mg/kg
320	CCN1/C(=C\C=C\c2n(CC)c3cc4ccccc4cc3[n+]2CC)Sc2ccccc21	–
1300	CCN1/C(=C\C=C2/CCC[n+]3c2n(CC)c2cc4ccccc4cc23)Sc2ccccc21	–
180	CCN1/C(=C\C=C2CC(C)[n+]3c2n(CC)c2cc4ccccc4cc23)Sc2ccccc21 (stereo not given)	–

Further lines, the compound ahead of its results:

Structure (SMILES)	IC50 [3] [nM]	further results
CCN1/C(=C\C=C2CC[n+]3c2n(CC)c2cc4ccccc4cc23)Oc2ccccc21	4200	–
CCn1c2[n+](c3cc4ccccc4cc31)C(C)CC2=C/C=C1\N(C)c2ccc3ccccc3c2C1(C)C (stereo not given)	310	–
CCN1/C(=C\C=C\c2n(CC)c3cc4ccccc4cc3[n+]2CC)C(C)(C)c2ccccc21	360	–
CCn1c(/C=C/C=C2\N(C)c3ccccc3C2(C)C)[n+](CCO)c2cc3ccccc3cc21	450	–
CCn1c2[n+](c3cc4ccccc4cc31)CCC2=C/C=C1\N(C)c2ccccc2C1(C)C	790	–
CCn1c(/C=C/C=C2\N(C)c3ccccc3C2(C)C)[n+](CCOC(C)=O)c2cc3ccccc3cc21	410	–
CCn1c(/C=C/C=C2\N(C)c3ccccc3C2(C)C)[n+](CC)c2nc3ccccc3nc21.[Cl-]	–	Kb [1]: 58.9 nM; ED50 [4]: 1.73 mg/kg
CCN1/C(=C\C=C\c2n(CC)c3cc4ccccc4cc3[n+]2CC)Oc2ccccc21	310	–
